Data: patent publication US20100267561A1, “HERBICIDAL PYRIDAZINONE DERIVATIVES” (priority 2007, published 2010)

Experiments:
Assay in all cases: Test B pre-/postemergence plant response
Assay type in all cases: in vivo
Settings in all cases: Preemergence
[1] = test system: woolly cupgrass (Eriochloa villosa)
Procedure, shortened: (§1)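 Preemergence and postemergence (plants 2-18 cm, 1- to 4-leaf stage) applications used test chemicals in a non-phytotoxic solvent with surfactant. Plants were held in a greenhouse 13 to 15 days, then rated visually against controls on a 0-100 scale (0 no effect, 100 complete control).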

[2] = test system: green foxtail (Setaria viridis)
Procedure, shortened: as §1

[3] = test system: downy bromegrass (Bromus tectorum)
Procedure, shortened: as §1

[4] = test system: corn (Zea mays)
Procedure, shortened: as §1

[5] = test system: Russian thistle (Salsola iberica)
Procedure, shortened: as §1

[6] = test system: eastern black (E.B.) nightshade (Solanum ptycanthum)
Procedure, shortened: as §1

[7] = test system: kochia (Kochia scoparia)
Procedure, shortened: as §1

[8] = test system: bermudagrass (Cynodon dactylon)
Procedure, shortened: as §1

[9] = test system: velvetleaf (Abutilon theophrasti)
Procedure, shortened: as §1

[10] = test system: Italian ryegrass (Lolium multiflorum)
Procedure, shortened: as §1

[11] = test system: pigweed (Amaranthus retroflexus)
Procedure, shortened: as §1

[12] = test system: soybean (Glycine max)
Procedure, shortened: as §1

[13] = test system: morningglory (Ipomoea coccinea)
Procedure, shortened: as §1

[14] = test system: surinam grass (Brachiaria decumbens)
Procedure, shortened: as §1

[15] = 16 g ai/ha, scale 0 to 100 (0 no effect, 100 complete control)
[16] = 31 g ai/ha, 0 to 100 scale, 0 no effect, 100 complete control

Q: How did the pest or weed control at 16 g/ha ([1]; Eriochloa villosa, pre-emergence, 16 g ai/ha, scale 0 to 100 (0 no effect, 100 complete control), read-out: Plant response rating, Cupgrass, Woolly) turn out when Cc1cn(-c2ccc(Cl)cc2)nc1-c1c(O)cnn(C)c1=O [Compound 30, 4-[1-(4-chlorophenyl)-4-methyl-1H-pyrazol-3-yl]-5-hydroxy-2-methyl-3(2H)-pyridazinone] was run?
A: Its pest or weed control at 16 g/ha is 75%.

Q: And the pest or weed control at 31 g/ha ([1]; Eriochloa villosa, pre-emergence, 31 g ai/ha, 0 to 100 scale, 0 no effect, 100 complete control, read-out: Plant response rating, Cupgrass, Woolly)?
A: The pest or weed control at 31 g/ha was 98%.

Q: And the pest or weed control at 62 g/ha ([1]; Eriochloa villosa, pre-emergence, 62 g ai/ha, scale 0 to 100, read-out: Plant response rating, Cupgrass, Woolly)?
A: The pest or weed control at 62 g/ha was 100%.

Q: What about the “Cupgrass, Woolly plant response rating” value ([1]; 8 g ai/ha, scale 0 to 100) of the same compound?
A: The value was 50.

Q: What about the “Foxtail, Green plant response rating” value ([2]; 8 g ai/ha, scale 0 to 100) of the same compound?
A: The value was 0.

Q: And the pest or weed control at 16 g/ha ([2]; Setaria viridis, pre-emergence, 16 g ai/ha, scale 0 to 100 (0 no effect, 100 complete control), read-out: Plant response rating, Foxtail, Green)?
A: Its pest or weed control at 16 g/ha is 0%.

Q: And the pest or weed control at 31 g/ha ([2]; Setaria viridis, pre-emergence, 31 g ai/ha, 0 to 100 scale, 0 no effect, 100 complete control, read-out: Plant response rating, Foxtail, Green)?
A: Its pest or weed control at 31 g/ha is 100%.

Q: And the pest or weed control at 62 g/ha ([2]; Setaria viridis, pre-emergence, 62 g ai/ha, scale 0 to 100, read-out: Plant response rating, Foxtail, Green)?
A: The pest or weed control at 62 g/ha was 100%.

Q: What about the pest or weed control at 16 g/ha ([3]; Bromus tectorum, pre-emergence, 16 g ai/ha, scale 0 to 100 (0 no effect, 100 complete control), read-out: Plant response rating, Bromegrass, Downy) of the same compound?
A: The pest or weed control at 16 g/ha was 10%.

Q: What about the pest or weed control at 31 g/ha ([3]; Bromus tectorum, pre-emergence, 31 g ai/ha, 0 to 100 scale, 0 no effect, 100 complete control, read-out: Plant response rating, Bromegrass, Downy) of the same compound?
A: The pest or weed control at 31 g/ha was 10%.

Q: What about the pest or weed control at 62 g/ha ([3]; Bromus tectorum, pre-emergence, 62 g ai/ha, scale 0 to 100, read-out: Plant response rating, Bromegrass, Downy) of the same compound?
A: The pest or weed control at 62 g/ha was 85%.

Q: And the “Bromegrass, Downy plant response rating” value ([3]; 8 g ai/ha, scale 0 to 100)?
A: The value was 0.

Q: And the “Corn plant response rating” value ([4]; 8 g ai/ha, scale 0 to 100)?
A: The value was 0.

Q: What about the Corn plant response rating (crop injury, 0 = no effect, 100 = complete kill) at 16 g/ha ([4]; Zea mays, pre-emergence, 16 g ai/ha, scale 0 to 100 (0 no effect, 100 complete control)) of the same compound?
A: Its Corn plant response rating (crop injury, 0 = no effect, 100 = complete kill) at 16 g/ha is 5%.

Q: What about the Corn plant response rating (crop injury, 0 = no effect, 100 = complete kill) at 31 g/ha ([4]; Zea mays, pre-emergence, 31 g ai/ha, 0 to 100 scale, 0 no effect, 100 complete control) of the same compound?
A: The Corn plant response rating (crop injury, 0 = no effect, 100 = complete kill) at 31 g/ha was 5%.

Q: And the Corn plant response rating (crop injury, 0 = no effect, 100 = complete kill) at 62 g/ha ([4]; Zea mays, pre-emergence, 62 g ai/ha, scale 0 to 100)?
A: The Corn plant response rating (crop injury, 0 = no effect, 100 = complete kill) at 62 g/ha was 5%.

Q: And the “Plant response rating, Russian Thistle” value [5, 15]?
A: The value was 0.

Q: What about the “Plant response rating, Russian Thistle” value [5, 16] of the same compound?
A: Its value is 0.

Q: And the “Plant response rating, Russian Thistle” value ([5]; 62 g ai/ha, scale 0 to 100)?
A: Its value is 0.

Q: What about the “Russian Thistle plant response rating” value ([5]; 8 g ai/ha, scale 0 to 100) of the same compound?
A: The value was 0.

Q: And the “Nightshade, E. B. plant response rating” value ([6]; 8 g ai/ha, scale 0 to 100)?
A: Its value is 0.

Q: And the pest or weed control at 16 g/ha ([6]; Solanum, pre-emergence, 16 g ai/ha, scale 0 to 100 (0 no effect, 100 complete control), read-out: Plant response rating, Nightshade, E. B.)?
A: The pest or weed control at 16 g/ha was 0%.

Q: And the pest or weed control at 31 g/ha ([6]; Solanum, pre-emergence, 31 g ai/ha, 0 to 100 scale, 0 no effect, 100 complete control, read-out: Plant response rating, Nightshade, E. B.)?
A: Its pest or weed control at 31 g/ha is 0%.

Q: What about the pest or weed control at 62 g/ha ([6]; Solanum, pre-emergence, 62 g ai/ha, scale 0 to 100, read-out: Plant response rating, Nightshade, E. B.) of the same compound?
A: The pest or weed control at 62 g/ha was 0%.

Q: What about the “Plant response rating, Kochia” value [7, 15] of the same compound?
A: The value was 0.

Q: And the “Plant response rating, Kochia” value [7, 16]?
A: Its value is 0.

Q: What about the “Plant response rating, Kochia” value ([7]; 62 g ai/ha, scale 0 to 100) of the same compound?
A: Its value is 0.

Q: What about the “Kochia plant response rating” value ([7]; 8 g ai/ha, scale 0 to 100) of the same compound?
A: Its value is 0.

Q: And the pest or weed control at 16 g/ha ([8]; Cynodon dactylon, pre-emergence, 16 g ai/ha, scale 0 to 100 (0 no effect, 100 complete control), read-out: Plant response rating, Bermudagrass)?
A: The pest or weed control at 16 g/ha was 90%.

Q: What about the pest or weed control at 31 g/ha ([8]; Cynodon dactylon, pre-emergence, 31 g ai/ha, 0 to 100 scale, 0 no effect, 100 complete control, read-out: Plant response rating, Bermudagrass) of the same compound?
A: Its pest or weed control at 31 g/ha is 100%.

Q: What about the pest or weed control at 62 g/ha ([8]; Cynodon dactylon, pre-emergence, 62 g ai/ha, scale 0 to 100, read-out: Plant response rating, Bermudagrass) of the same compound?
A: The pest or weed control at 62 g/ha was 100%.

Q: And the “Bermudagrass plant response rating” value ([8]; 8 g ai/ha, scale 0 to 100 (0 no effect, 100 complete control))?
A: The value was 60.

Q: And the pest or weed control at 16 g/ha ([9]; Abutilon theophrasti, pre-emergence, 16 g ai/ha, scale 0 to 100 (0 no effect, 100 complete control), read-out: Plant response rating, Velvetleaf)?
A: The pest or weed control at 16 g/ha was 0%.

Q: And the pest or weed control at 31 g/ha ([9]; Abutilon theophrasti, pre-emergence, 31 g ai/ha, 0 to 100 scale, 0 no effect, 100 complete control, read-out: Plant response rating, Velvetleaf)?
A: The pest or weed control at 31 g/ha was 0%.

Q: And the pest or weed control at 62 g/ha ([9]; Abutilon theophrasti, pre-emergence, 62 g ai/ha, scale 0 to 100, read-out: Plant response rating, Velvetleaf)?
A: Its pest or weed control at 62 g/ha is 0%.

Q: And the “Velvetleaf plant response rating” value ([9]; 8 g ai/ha, scale 0 to 100)?
A: The value was 0.

Q: What about the pest or weed control at 16 g/ha ([10]; Lolium multiflorum, pre-emergence, 16 g ai/ha, scale 0 to 100 (0 no effect, 100 complete control), read-out: Plant response rating, Ryegrass, Italian) of the same compound?
A: Its pest or weed control at 16 g/ha is 10%.

Q: And the pest or weed control at 31 g/ha ([10]; Lolium multiflorum, pre-emergence, 31 g ai/ha, 0 to 100 scale, 0 no effect, 100 complete control, read-out: Plant response rating, Ryegrass, Italian)?
A: Its pest or weed control at 31 g/ha is 50%.

Q: And the pest or weed control at 62 g/ha ([10]; Lolium multiflorum, pre-emergence, 62 g ai/ha, scale 0 to 100, read-out: Plant response rating, Ryegrass, Italian)?
A: The pest or weed control at 62 g/ha was 100%.

Q: And the “Ryegrass, Italian plant response rating” value ([10]; 8 g ai/ha, scale 0 to 100)?
A: Its value is 0.

Q: What about the pest or weed control at 16 g/ha ([11]; Amaranthus retroflexus, pre-emergence, 16 g ai/ha, scale 0 to 100 (0 no effect, 100 complete control), read-out: Plant response rating, Pigweed) of the same compound?
A: The pest or weed control at 16 g/ha was 0%.

Q: What about the pest or weed control at 31 g/ha ([11]; Amaranthus retroflexus, pre-emergence, 31 g ai/ha, 0 to 100 scale, 0 no effect, 100 complete control, read-out: Plant response rating, Pigweed) of the same compound?
A: The pest or weed control at 31 g/ha was 0%.

Q: What about the pest or weed control at 62 g/ha ([11]; Amaranthus retroflexus, pre-emergence, 62 g ai/ha, scale 0 to 100, read-out: Plant response rating, Pigweed) of the same compound?
A: Its pest or weed control at 62 g/ha is 0%.

Q: And the “Pigweed plant response rating” value ([11]; 8 g ai/ha, scale 0 to 100)?
A: Its value is 0.

Q: And the plant injury at 16 g/ha ([12]; Glycine max, pre-emergence, 16 g ai/ha, scale 0 to 100 (0 no effect, 100 complete control), read-out: Plant response rating, Soybean)?
A: Its plant injury at 16 g/ha is 0%.

Q: What about the plant injury at 31 g/ha ([12]; Glycine max, pre-emergence, 31 g ai/ha, 0 to 100 scale, 0 no effect, 100 complete control, read-out: Plant response rating, Soybean) of the same compound?
A: The plant injury at 31 g/ha was 0%.

Q: What about the plant injury at 62 g/ha ([12]; Glycine max, pre-emergence, 62 g ai/ha, scale 0 to 100, read-out: Plant response rating, Soybean) of the same compound?
A: Its plant injury at 62 g/ha is 0%.

Q: And the “Soybean plant response rating” value ([12]; 8 g ai/ha, scale 0 to 100)?
A: Its value is 0.

Q: What about the pest or weed control at 16 g/ha ([13]; Ipomoea, pre-emergence, 16 g ai/ha, scale 0 to 100 (0 no effect, 100 complete control), read-out: Plant response rating, Morningglory) of the same compound?
A: The pest or weed control at 16 g/ha was 0%.

Q: What about the pest or weed control at 31 g/ha ([13]; Ipomoea, pre-emergence, 31 g ai/ha, 0 to 100 scale, 0 no effect, 100 complete control, read-out: Plant response rating, Morningglory) of the same compound?
A: The pest or weed control at 31 g/ha was 0%.

Q: What about the “Morningglory plant response rating” value ([13]; 8 g ai/ha, scale 0 to 100) of the same compound?
A: Its value is 0.

Q: And the “Surinam Grass plant response rating” value ([14]; 8 g ai/ha, scale 0 to 100)?
A: The value was 10.

Q: And the pest or weed control at 16 g/ha ([14]; Urochloa decumbens, pre-emergence, 16 g ai/ha, scale 0 to 100 (0 no effect, 100 complete control), read-out: Plant response rating, Surinam Grass)?
A: The pest or weed control at 16 g/ha was 60%.

Q: What about the pest or weed control at 31 g/ha ([14]; Urochloa decumbens, pre-emergence, 31 g ai/ha, 0 to 100 scale, 0 no effect, 100 complete control, read-out: Plant response rating, Surinam Grass) of the same compound?
A: Its pest or weed control at 31 g/ha is 90%.

Q: What about the pest or weed control at 62 g/ha ([14]; Urochloa decumbens, pre-emergence, 62 g ai/ha, scale 0 to 100, read-out: Plant response rating, Surinam Grass) of the same compound?
A: Its pest or weed control at 62 g/ha is 95%.
